Reference: the supplement of paper PMC10307832

Assays:
Experiment in all cases: relative viability (nuclei count vs DMSO), 5 days (fraction); higher = more cells survive
[1] = tested on: 201T
Outline: (§1)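 Lung cancer cell lines, seeded in 1536-well plates, were treated the following day by pin tool with a single drug or with five library-drug doses (not always all listed) in √10 steps on top of a fixed anchor-drug dose. Cells were fixed and nuclei stained in one step after 5 days, and nuclei were counted. Relative viability is the nuclei count for treated wells divided by that for vehicle wells, reported as medians of duplicate plates.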

[2] = tested on: COR-L 105
Outline: as §1

[3] = tested on: ChaGo-K-1
Outline: as §1

[4] = tested on: EKVX
Outline: as §1

[5] = tested on: H3255
Outline: as §1

[6] = tested on: HARA
Outline: as §1

[7] = tested on: HCC-827
Outline: as §1

[8] = tested on: HOP-62
Outline: as §1

[9] = tested on: LCLC-103H
Outline: as §1

[10] = tested on: LOU-NH91
Outline: as §1

[11] = tested on: NCI-H1975
Outline: as §1

[12] = tested on: NCI-H2126
Outline: as §1

[13] = tested on: NCI-H2228
Outline: as §1

[14] = tested on: NCI-H23
Outline: as §1

[15] = tested on: NCI-H2405
Outline: as §1

[16] = tested on: NCI-H3122
Outline: as §1

[17] = tested on: NCI-H596
Outline: as §1

[18] = tested on: NCI-H650
Outline: as §1

[19] = tested on: NCI-H661
Outline: as §1

[20] = tested on: NCI-H727
Outline: as §1

[21] = tested on: PC-3 [JPC-3]
Outline: as §1

[22] = tested on: SK-LU-1
Outline: as §1

[23] = tested on: SW 900
Outline: as §1

Question: What does the source list for `Cc1csc(=NC2CCCCC2)n1/N=C/c1ccc(O)c(O)c1O` [MIM1] + O=C(c1cc(Cc2n[nH]c(=O)c3ccccc23)ccc1F)N1CCN(C(=O)C2CC2)CC1 [Olaparib] (partner 8 µM)?
Answer: relative viability ([1]; first compound 0.2 µM): 0.833; relative viability ([1]; first compound 0.6325 µM): 0.863; relative viability ([1]; first compound 2 µM): 0.831; relative viability ([1]; first compound 6.325 µM): 0.415; relative viability ([1]; first compound 20 µM): 0.396; relative viability ([2]; first compound 0.2 µM): 0.694; relative viability ([2]; first compound 0.6325 µM): 0.673; relative viability ([2]; first compound 2 µM): 0.63; relative viability ([2]; first compound 6.325 µM): 0.554; relative viability ([2]; first compound 20 µM): 0.564; relative viability ([3]; first compound 0.2 µM): 0.399; relative viability ([3]; first compound 0.6325 µM): 0.346; relative viability ([3]; first compound 2 µM): 0.385; relative viability ([3]; first compound 6.325 µM): 0.214; relative viability ([3]; first compound 20 µM): 0.127; relative viability ([4]; first compound 0.2 µM): 0.776; relative viability ([4]; first compound 0.6325 µM): 0.785; relative viability ([4]; first compound 2 µM): 0.59; relative viability ([4]; first compound 6.325 µM): 0.51; relative viability ([4]; first compound 20 µM): 0.412; relative viability ([5]; first compound 0.2 µM): 0.535; relative viability ([5]; first compound 0.6325 µM): 0.541; relative viability ([5]; first compound 2 µM): 0.518; relative viability ([5]; first compound 6.325 µM): 0.473; relative viability ([5]; first compound 20 µM): 0.253; relative viability ([6]; first compound 0.2 µM): 0.792; relative viability ([6]; first compound 0.6325 µM): 1.06; relative viability ([6]; first compound 2 µM): 0.824; relative viability ([6]; first compound 6.325 µM): 0.187; relative viability ([6]; first compound 20 µM): 0.177; relative viability ([7]; first compound 0.2 µM): 0.653; relative viability ([7]; first compound 0.6325 µM): 0.626; relative viability ([7]; first compound 2 µM): 0.639; relative viability ([7]; first compound 6.325 µM): 0.37; relative viability ([7]; first compound 20 µM): 0.241; relative viability ([8]; first compound 0.2 µM): 0.424; relative viability ([8]; first compound 0.6325 µM): 0.529; relative viability ([8]; first compound 2 µM): 0.169; relative viability ([8]; first compound 6.325 µM): 0.293; relative viability ([8]; first compound 20 µM): 0.115; relative viability ([9]; first compound 0.2 µM): 0.814; relative viability ([9]; first compound 0.6325 µM): 0.771; relative viability ([9]; first compound 2 µM): 0.782; relative viability ([9]; first compound 6.325 µM): 0.532; relative viability ([9]; first compound 20 µM): 0.336; relative viability ([10]; first compound 0.2 µM): 0.92; relative viability ([10]; first compound 0.6325 µM): 0.922; relative viability ([10]; first compound 2 µM): 0.596; relative viability ([10]; first compound 6.325 µM): 0.589; relative viability ([10]; first compound 20 µM): 0.369; relative viability ([11]; first compound 0.2 µM): 0.737; relative viability ([11]; first compound 0.6325 µM): 0.755; relative viability ([11]; first compound 2 µM): 0.778; relative viability ([11]; first compound 6.325 µM): 0.307; relative viability ([11]; first compound 20 µM): 0.17; relative viability ([12]; first compound 0.2 µM): 0.936; relative viability ([12]; first compound 0.6325 µM): 0.879; relative viability ([12]; first compound 2 µM): 0.916; relative viability ([12]; first compound 6.325 µM): 0.849; relative viability ([12]; first compound 20 µM): 0.401; relative viability ([13]; first compound 0.2 µM): 0.719; relative viability ([13]; first compound 0.6325 µM): 0.719; relative viability ([13]; first compound 2 µM): 0.861; relative viability ([13]; first compound 6.325 µM): 0.227; relative viability ([13]; first compound 20 µM): 0.192; relative viability ([14]; first compound 0.2 µM): 0.302; relative viability ([14]; first compound 0.6325 µM): 0.266; relative viability ([14]; first compound 2 µM): 0.215; relative viability ([14]; first compound 6.325 µM): 0.111; relative viability ([14]; first compound 20 µM): 0.13; relative viability ([15]; first compound 0.2 µM): 0.881; relative viability ([15]; first compound 0.6325 µM): 0.918; relative viability ([15]; first compound 2 µM): 0.827; relative viability ([15]; first compound 6.325 µM): 0.681; relative viability ([15]; first compound 20 µM): 0.369; relative viability ([16]; first compound 0.2 µM): 0.626; relative viability ([16]; first compound 0.6325 µM): 0.643; relative viability ([16]; first compound 2 µM): 0.618; relative viability ([16]; first compound 6.325 µM): 0.325; relative viability ([16]; first compound 20 µM): 0.113; relative viability ([17]; first compound 0.2 µM): 0.741; relative viability ([17]; first compound 0.6325 µM): 0.73; relative viability ([17]; first compound 2 µM): 0.694; relative viability ([17]; first compound 6.325 µM): 0.626; relative viability ([17]; first compound 20 µM): 0.491; relative viability ([18]; first compound 0.2 µM): 0.421; relative viability ([18]; first compound 0.6325 µM): 0.364; relative viability ([18]; first compound 2 µM): 0.381; relative viability ([18]; first compound 6.325 µM): 0.357; relative viability ([18]; first compound 20 µM): 0.127; relative viability ([19]; first compound 0.2 µM): 0.696; relative viability ([19]; first compound 0.6325 µM): 0.715; relative viability ([19]; first compound 2 µM): 0.778; relative viability ([19]; first compound 6.325 µM): 0.499; relative viability ([19]; first compound 20 µM): 0.316; relative viability ([20]; first compound 0.2 µM): 0.7; relative viability ([20]; first compound 0.6325 µM): 0.721; relative viability ([20]; first compound 2 µM): 0.526; relative viability ([20]; first compound 6.325 µM): 0.748; relative viability ([20]; first compound 20 µM): 0.523; relative viability ([21]; first compound 0.2 µM): 1.14; relative viability ([21]; first compound 0.6325 µM): 1.04; relative viability ([21]; first compound 2 µM): 1.07; relative viability ([21]; first compound 6.325 µM): 0.871; relative viability ([21]; first compound 20 µM): 0.504; relative viability ([22]; first compound 0.2 µM): 0.447; relative viability ([22]; first compound 0.6325 µM): 0.559; relative viability ([22]; first compound 2 µM): 0.575; relative viability ([22]; first compound 6.325 µM): 0.281; relative viability ([22]; first compound 20 µM): 0.299; relative viability ([23]; first compound 0.2 µM): 0.968; relative viability ([23]; first compound 0.6325 µM): 0.819; relative viability ([23]; first compound 2 µM): 0.852; relative viability ([23]; first compound 6.325 µM): 0.209; relative viability ([23]; first compound 20 µM): 0.181
